The values that follow come from ChEMBL document CHEMBL5360532, “Current scenario of quinolone hybrids with potential antibacterial activity against ESKAPE pathogens” (Eur J Med Chem, 2023).

Common to all, as to assay type: functional
Assay [1] relates to Mycobacterium tuberculosis. As to the kind of experiment: Antimycobacterial activity against Mycobacterium tuberculosis H37Rv assessed as bacterial growth inhibition by LJ slant assay.
Assay [2] deals with Escherichia coli. Kind of assay: Antibacterial activity against Escherichia coli assessed as zone of inhibition at 50 mg/ml cup plate assay. Conditions: read-out: IZ.
The test system of assay [3] is Mycobacterium tuberculosis. Kind of assay: Antimycobacterial activity against multidrug Mycobacterium tuberculosis assessed as bacterial growth inhibition by LJ slant assay.
Assay [4] concerns Mycobacterium tuberculosis. As to the kind of experiment: Potency index, ratio of ciprofloxacin MIC to test compound MIC for antimycobacterial activity against Mycobacterium tuberculosis H37Rv assessed as bacterial growth inhibition by LJ slant assay.
In assay [5] the test system is Mycobacterium tuberculosis. Kind of assay: Antimycobacterial activity against extensive drug Mycobacterium tuberculosis assessed as bacterial growth inhibition by LJ slant assay.
In assay [6] the test system is Staphylococcus aureus. As to the kind of experiment: Antibacterial activity against Staphylococcus aureus assessed as zone of inhibition at 50 mg/ml cup plate assay. Conditions: read-out: IZ.
Assay [7] relates to Escherichia coli. As to the kind of experiment: Antibacterial activity against Escherichia coli DSM-1116 assessed as bacterial growth inhibition by agar diffusion assay. (Agar diffusion results depend on both activity and mobility in agar.)
Assay [8] relates to Pseudomonas aeruginosa. Kind of assay: Antibacterial activity against efflux deficient Pseudomonas aeruginosa PA14 assessed as bacterial growth inhibition by agar diffusion assay.
Assay [9] relates to Staphylococcus aureus. Kind of assay: Antibacterial activity against Staphylococcus aureus Newman assessed as bacterial growth inhibition by agar diffusion assay.
In assay [10] the test system is Escherichia coli. As to the kind of experiment: Antibacterial activity against efflux deficient Escherichia coli TolC assessed as bacterial growth inhibition by agar diffusion assay.
Another assay relates to Proteus mirabilis. As to the kind of experiment: Antibacterial activity against efflux deficient Proteus mirabilis DSM-4479 assessed as bacterial growth inhibition by agar diffusion assay.
The test system of assay [11] is Pseudomonas aeruginosa. As to the kind of experiment: Antibacterial activity against efflux deficient Pseudomonas aeruginosa DSM-30104 assessed as bacterial growth inhibition by agar diffusion assay.
The test system of assay [12] is Pseudomonas aeruginosa. As to the kind of experiment: Antibacterial activity against Pseudomonas aeruginosa assessed as bacterial growth inhibition by serial dilution method.
Assay [13] deals with Staphylococcus aureus. As to the kind of experiment: Antibacterial activity against Staphylococcus aureus assessed as bacterial growth inhibition by serial dilution method.
Assay [14] concerns Mycolicibacterium smegmatis. As to the kind of experiment: Antibacterial activity against Mycobacterium smegmatis assessed as bacterial growth inhibition by serial dilution method.
Another assay deals with Enterococcus. As to the kind of experiment: Antibacterial activity against vancomycin resistant Enterococcus assessed as bacterial growth inhibition measured after 16 to 24 hrs by broth microdilution assay. Conditions: time 16-24 hrs.
A further assay has as its system Streptococcus agalactiae. As to the kind of experiment: Antibacterial activity against Streptococcus agalactiae assessed as bacterial growth inhibition measured after 16 to 24 hrs by broth microdilution assay. Conditions: time 16-24 hrs. For orientation: Broth dilution looks for growth in wells or tubes with falling amounts of substance.
Assay [15] concerns Streptococcus pneumoniae. Kind of assay: Antibacterial activity against Streptococcus pneumoniae clinical isolates assessed as bacterial growth inhibition measured after 16 to 24 hrs by broth microdilution assay. The following applies: time 16-24 hrs.
For assay [16], the system named is Staphylococcus haemolyticus. Kind of assay: Antibacterial activity against Staphylococcus haemolyticus clinical isolates assessed as bacterial growth inhibition measured after 16 to 24 hrs by broth microdilution assay. The following applies: time 16-24 hrs.
Assay [17] relates to Enterococcus faecalis. Kind of assay: Antibacterial activity against Enterococcus faecalis clinical isolates assessed as bacterial growth inhibition measured after 16 to 24 hrs by broth microdilution assay. Conditions: time 16-24 hrs.
Assay [18] relates to Staphylococcus aureus. As to the kind of experiment: Antibacterial activity against methicillin resistant Staphylococcus aureus assessed as bacterial growth inhibition measured after 16 to 24 hrs by broth microdilution assay. Conditions: time 16-24 hrs.
In the next assay the test system is Haemophilus influenzae. Kind of assay: Antibacterial activity against Haemophilus influenzae assessed as bacterial growth inhibition measured after 16 to 24 hrs by broth microdilution assay. Conditions: time 16-24 hrs.
For assay [19], the system named is Staphylococcus epidermidis. As to the kind of experiment: Antibacterial activity against Staphylococcus epidermidis clinical isolates assessed as bacterial growth inhibition measured after 16 to 24 hrs by broth microdilution assay. Conditions: time 16-24 hrs.
For assay [20], the system named is Enterococcus faecalis. As to the kind of experiment: Antibacterial activity against Enterococcus faecalis assessed as bacterial growth inhibition measured after 16 to 24 hrs by broth microdilution assay. Conditions: time 16-24 hrs.
In assay [21] the test system is Staphylococcus aureus. Kind of assay: Antibacterial activity against Staphylococcus aureus assessed as bacterial growth inhibition measured after 16 to 24 hrs by broth microdilution assay. The following applies: time 16-24 hrs.
Assay [22] relates to Streptococcus pneumoniae. Kind of assay: Antibacterial activity against Streptococcus pneumoniae assessed as bacterial growth inhibition measured after 16 to 24 hrs by broth microdilution assay. Conditions: time 16-24 hrs.
For another assay, the system named is Enterococcus faecium. As to the kind of experiment: Antibacterial activity against Enterococcus faecium clinical isolates assessed as bacterial growth inhibition measured after 16 to 24 hrs by broth microdilution assay. The following applies: time 16-24 hrs.
A further assay relates to Haemophilus parasuis. As to the kind of experiment: Antibacterial activity against Haemophilus parasuis clinical isolates assessed as bacterial growth inhibition measured after 16 to 24 hrs by broth microdilution assay. Conditions: Glaesserella parasuis; time 16-24 hrs.
In the next assay the test system is Streptococcus suis. Kind of assay: Antibacterial activity against Streptococcus suis clinical isolates assessed as bacterial growth inhibition measured after 16 to 24 hrs by broth microdilution assay. Conditions: time 16-24 hrs.
In assay [23] the test system is Staphylococcus aureus. As to the kind of experiment: Antibacterial activity against Staphylococcus aureus clinical isolates assessed as bacterial growth inhibition measured after 16 to 24 hrs by broth microdilution assay. The following applies: time 16-24 hrs.

Each structure is given as a SMILES string. ≈ marks a conversion by molar mass, not a printed value. Some results are limits rather than exact numbers.

`O=c1c(-c2nnc(S)o2)cn(C2CC2)c2cc(N3CCNCC3)c(F)cc12`: the MIC in assay [1], in assay [3] and in [5] was 0.063 µg/mL (≈ 0.163 µM) throughout. Moreover, the values for the zone of inhibition at 50000 µg/mL in the assay with Escherichia coli [2] and with Staphylococcus aureus [6] were 12 mm and 13 mm, respectively. Also, in [4], the Ratio entry was “>=32”.

Consider `N#Cc1c(-c2ccccc2)nc(SCC(=O)N2CCN(c3cc4c(cc3F)c(=O)c(C(=O)O)cn4C3CC3)CC2)[nH]c1=O`, for which the MIC with Escherichia coli [7], in the assay with Pseudomonas aeruginosa [8], in the assay on Staphylococcus aureus [9], in the assay on Escherichia coli [10], in the assay on Proteus mirabilis and with Pseudomonas aeruginosa [11] was no more than 0.03 µg/mL each time.

Turning to `COC(=O)c1ccc(NC(=O)COC(=O)c2ccncc2)cc1OCCC(=O)NC1CCN(c2c(F)cc3c(=O)c(C(=O)O)cn(C4CC4)c3c2Cl)C1` (stereo not given), the MIC (in the assay with Pseudomonas aeruginosa [12]; in the assay on Staphylococcus aureus [13]; in assay [14]) was 0.125 µg/mL (≈ 0.167 µM) each time.

`C[C@H]1CCc2c(N3CCC(O)(COc4ccc(N5C[C@H](CO)OC5=O)cc4F)CC3)c(F)cc3c(=O)c(C(=O)O)cn1c23`: the MIC was 0.016 µg/mL (≈ 0.0267 µM) in the assay with Enterococcus; 0.016 µg/mL (≈ 0.0267 µM) with Streptococcus agalactiae; no more than 0.063 µg/mL with Streptococcus pneumoniae [15]; no more than 0.063 µg/mL in assay [16]; no more than 0.063 µg/mL with Enterococcus faecalis [17]; 0.016 µg/mL (≈ 0.0267 µM) in the assay on Staphylococcus aureus [18]. For the same molecule, the MIC in the assay on Haemophilus influenzae is 0.016 µg/mL (≈ 0.0267 µM); in [19] it was no more than 0.063 µg/mL; in the assay on Enterococcus faecalis [20], 0.016 µg/mL (≈ 0.0267 µM); in the assay on Staphylococcus aureus [21], 0.016 µg/mL (≈ 0.0267 µM); with Streptococcus pneumoniae [22], 0.016 µg/mL (≈ 0.0267 µM); in the assay with Enterococcus faecium, no more than 0.063 µg/mL. For the same molecule, the MIC in the assay with Haemophilus parasuis, with Streptococcus suis and in the assay with Staphylococcus aureus [23] was no more than 0.063 µg/mL each time.
